Among the data in ChEMBL document CHEMBL1128010, “Novel HO-DPAT (hydroxy-2-dipropylaminotetralin) isomers: Stereoselective synthesis and receptor binding studies” (Bioorg Med Chem Lett, 1994) are Ki values, retold here.

Assay type in all cases: cell membranes, Striatum, Membrane
One assay concerns the target D(1A) dopamine receptor (Rattus norvegicus, UniProt P18901). In words: Compound was evaluated for its affinity to Dopamine receptor D1 labelled with [3H]-SCH- 23390 in rat striatal membranes.
The target in assay [1] is T1, D(2) dopamine receptor (Rattus norvegicus, UniProt P61169). In words: Compound was evaluated for its affinity to Dopamine receptor D2 labelled with [3H]spiroperidol in rat striatal membranes.
T1 sequence (P61169 whole entry): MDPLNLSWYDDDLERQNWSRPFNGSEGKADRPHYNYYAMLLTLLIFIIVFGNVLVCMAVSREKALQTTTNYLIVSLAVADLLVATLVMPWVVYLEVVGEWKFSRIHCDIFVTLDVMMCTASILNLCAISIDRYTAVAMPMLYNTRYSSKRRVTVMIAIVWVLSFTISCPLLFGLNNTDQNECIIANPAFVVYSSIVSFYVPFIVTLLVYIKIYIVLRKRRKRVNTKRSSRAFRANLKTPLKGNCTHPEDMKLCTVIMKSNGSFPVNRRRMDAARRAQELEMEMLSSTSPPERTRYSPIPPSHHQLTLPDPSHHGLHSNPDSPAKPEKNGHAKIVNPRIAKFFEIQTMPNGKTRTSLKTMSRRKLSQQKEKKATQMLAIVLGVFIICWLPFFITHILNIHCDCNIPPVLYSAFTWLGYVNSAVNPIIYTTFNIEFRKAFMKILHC
Assay [2] addresses T1, D(2) dopamine receptor. Briefly: Compound was evaluated for its affinity to Dopamine receptor D2 labelled with [3H]pramipexole in rat striatal membranes.

Some results are limits rather than exact numbers.

Sequence of D(1A) dopamine receptor (P18901 whole entry): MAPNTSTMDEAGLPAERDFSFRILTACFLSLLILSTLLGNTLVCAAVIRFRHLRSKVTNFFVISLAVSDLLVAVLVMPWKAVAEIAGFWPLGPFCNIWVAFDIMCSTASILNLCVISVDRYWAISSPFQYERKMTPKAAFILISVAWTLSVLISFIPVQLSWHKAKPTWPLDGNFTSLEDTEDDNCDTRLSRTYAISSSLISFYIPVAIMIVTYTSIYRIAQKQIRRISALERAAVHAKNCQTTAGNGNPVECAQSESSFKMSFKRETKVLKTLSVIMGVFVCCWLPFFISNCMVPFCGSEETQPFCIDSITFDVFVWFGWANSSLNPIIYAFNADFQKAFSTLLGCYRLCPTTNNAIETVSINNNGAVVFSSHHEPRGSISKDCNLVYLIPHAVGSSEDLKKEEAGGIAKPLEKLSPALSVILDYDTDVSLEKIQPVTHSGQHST

The Ki is a measure of affinity in units of concentration, obtained from inhibition or displacement. Turning to `CCCN(CCC)C1Cc2ccccc2[C@H](O)C1` (stereo partly specified), the Ki is over 50 µM at D(1A) dopamine receptor, 13.9 µM at D(2) dopamine receptor [1] and 35.7 nM at D(2) dopamine receptor [2].
The matching figures for `CCCN(CCC)C1Cc2ccccc2[C@@H](O)C1` (stereo partly specified): over 50 µM, 13 µM and 262 nM.
